According to ChEMBL document CHEMBL5727761, “1-cyano-pyrrolidine compounds as USP30 inhibitors” (2020):

Biological target: T1, Ubiquitin carboxyl-terminal hydrolase 30 (Homo sapiens, UniProt Q70CQ3)
T1 sequence (Q70CQ3 whole entry): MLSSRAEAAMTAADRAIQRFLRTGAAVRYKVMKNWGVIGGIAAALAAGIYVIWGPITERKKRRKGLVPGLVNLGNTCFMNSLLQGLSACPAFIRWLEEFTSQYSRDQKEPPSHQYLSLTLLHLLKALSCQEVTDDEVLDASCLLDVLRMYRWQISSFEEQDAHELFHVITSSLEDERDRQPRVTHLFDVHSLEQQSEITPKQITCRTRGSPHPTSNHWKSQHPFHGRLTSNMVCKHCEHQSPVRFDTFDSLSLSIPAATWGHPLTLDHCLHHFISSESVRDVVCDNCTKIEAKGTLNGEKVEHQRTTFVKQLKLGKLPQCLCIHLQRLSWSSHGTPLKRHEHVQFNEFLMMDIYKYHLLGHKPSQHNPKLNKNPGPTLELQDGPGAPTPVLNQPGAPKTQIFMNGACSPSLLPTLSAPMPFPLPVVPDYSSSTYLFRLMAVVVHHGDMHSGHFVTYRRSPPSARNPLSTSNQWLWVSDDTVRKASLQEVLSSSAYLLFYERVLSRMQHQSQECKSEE
Experiment: Biochemical Fluorescence Intensity Kinetic Assay/Biochemical Fluorescence Intensity Assay: USP30 Biochemical Fluorescence Intensity Kinetic Assay.Reactions were performed in duplicate in black 384 well plates (small volume, Greiner 784076) in a final reaction volume of 21 μl. USP30 CD (Boston Biochem E-582 or 57-517, #64-0057-050 Ubiquigent) was diluted in reaction buffer (40 mM Tris, pH 7.5, 0.005% Tween 20, 0.5 mg/ml BSA, 5 mM beta-mercaptoethanol) to the equivalent of 0, 0.0005, 0.001, 0.005, and 0.01 μl/well. Buffer was optimised for optimal temperature, pH, reducing agent, salts, time of incubation, and detergent. Reactions were initiated by the addition of Ubiquitin-Rhodamine 110 (U-555, Boston Biochem) at a final concentration of 100 nM. Reactions were incubated at room temperature and read every 2 min for 120 min. Readings were performed on a Pherastar Plus (BMG Labtech). […] A typical 8-point dilution series would be 100, 30, 10, 3, 1, 0.3, 0.1, 0.03 μM final. Reactions were performed in duplicate in black 384 well plates (small volume, Greiner 784076) in a final reaction volume of 21 μl. Either 1 μl of 50% DMSO or diluted compound was added to the plate. USP30 was diluted in reaction buffer (40 mM Tris, pH 7.5, 0.005% Tween 20, 0.5 mg/ml BSA, 5 mM beta-mercaptoethanol) to the equivalent of 0.001 μl/well and 10 μl of diluted USP30 was added to the compound. […]

## N#CN1C[C@H]2CCN(C(=O)N3CCc4ccccc43)[C@H]2C1
  IC50: in the range around 5.5 µM

## N#CN1CC[C@@H](NC(=O)c2ccc(N3CCOCC3)cc2)C1
  IC50: in the range around 0.55 µM
